The values below are quoted from earlier work in US20070010584A1, “Compositions and methods for orthostatic intolerance” (priority 2003, published 2007).

Read-outs that look alike come from different tables or passages of the source.

For orientation: half-life means the time needed for the level to fall by half in the phase considered.

The conditions of series [1]: in vivo.
The test system of series [2] is patients with OI and orthostatic tachycardia. The settings on record: in vivo.
Setting [3] is: clonidine 0.1 mg PO, 13 patients with OI.

On to `N[C@H](C(=O)O)[C@H](O)c1ccc(O)c(O)c1` [DOPS, Threo-3-(3,4-dihydroxyphenyl)serine], for which the “time of peak NE levels” value (after ingestion of DOPS) is reported as “about 5 hours”. Further, the “duration of increased plasma levels of DOPS and NE” value (after oral administration of DOPS) is “at least 12 hours”. Besides, the “time of peak plasma levels of DOPS” value (after oral ingestion) is “about 3 hours”.

Regarding `COc1ccc(OC)c(C(O)CNC(=O)CN)c1` (stereo not drawn) [Midodrine], in the series with patients with OI (midodrine 5-10 mg PO, 13 patients with OI), the “supine and standing heart rate” value is “decreased both supine and standing heart rate”. Moreover, the half-life in series [1] is 30 min.

Take `CC(C)NCC(O)COc1cccc2ccccc12` (stereo not drawn) [Propranolol]: the “efficacy in OI and orthostatic tachycardia” value in series [2] was “effective in a number of patients”.

`Clc1cccc(Cl)c1N=C1NCCN1` [clonidine]: in the series on patients with OI (clonidine 0.1 mg PO), the “tolerability in OI patients” value is “tolerate clonidine poorly”. For the same compound, in the series with patients with OI (setting [3]), the blood pressure result is “significantly decreased blood pressure”; the “supine and standing heart rate” value was “decreased both supine and standing heart rate”.
